Measurements published in PubChem BioAssay AID1963846 (Molecular Pharmacology Branch, DTP, NCI, 2024).

Test system: 454973-116-R2-J3-PDC complex spheroid viability
Experiment: Anticancer human tumor 454973-116-R2-J3-PDC patient-derived pancreatic carcinoma cell line growth inhibition [POLQ]
Conditions: for IC50: curve of first compound; for viability, T/C: stronger effect = lower value
In short: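 Patient-derived tumour cells were co-cultured with HUVEC and mesenchymal stem cells as multicellular spheroids at 37 °C. They were treated with POLQ inhibitors (novobiocin, ART-558, RP6685) alone or combined with other agents. Top concentrations were at or near clinical Cmax (otherwise 10 microM; SN-38 at 1 microM), decreasing in half-log steps.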

[1] = second compound 0.0316 µM, first compound 0.0316 µM
[2] = second compound 0.0316 µM, first compound 0.1 µM
[3] = second compound 0.0316 µM, first compound 0.316 µM
[4] = second compound 0.0316 µM, first compound 1 µM
[5] = second compound 0.0316 µM, first compound 3.16 µM
[6] = second compound 0.0316 µM, first compound 10 µM
[7] = second compound 0.1 µM, first compound 0.0316 µM
[8] = second compound 0.1 µM, first compound 0.1 µM
[9] = second compound 0.1 µM, first compound 0.316 µM
[10] = second compound 0.1 µM, first compound 1 µM
[11] = second compound 0.1 µM, first compound 3.16 µM
[12] = second compound 0.1 µM, first compound 10 µM
[13] = second compound 0.316 µM, first compound 0.0316 µM
[14] = second compound 0.316 µM, first compound 0.1 µM
[15] = second compound 0.316 µM, first compound 0.316 µM
[16] = second compound 0.316 µM, first compound 1 µM
[17] = second compound 0.316 µM, first compound 3.16 µM
[18] = second compound 0.316 µM, first compound 10 µM
[19] = second compound 1 µM, first compound 0.0316 µM
[20] = second compound 1 µM, first compound 0.1 µM
[21] = second compound 1 µM, first compound 0.316 µM
[22] = second compound 1 µM, first compound 1 µM
[23] = second compound 1 µM, first compound 3.16 µM
[24] = second compound 1 µM, first compound 10 µM
[25] = second compound 3.16 µM, first compound 0.0316 µM
[26] = second compound 3.16 µM, first compound 0.1 µM
[27] = second compound 3.16 µM, first compound 0.316 µM
[28] = second compound 3.16 µM, first compound 1 µM
[29] = second compound 3.16 µM, first compound 3.16 µM
[30] = second compound 3.16 µM, first compound 10 µM
[31] = second compound 10 µM, first compound 0.0316 µM
[32] = second compound 10 µM, first compound 0.1 µM
[33] = second compound 10 µM, first compound 0.316 µM
[34] = second compound 10 µM, first compound 1 µM
[35] = second compound 10 µM, first compound 3.16 µM
[36] = second compound 10 µM, first compound 10 µM
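Further: spheroids exposed to drugs for seven days before measurement.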
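Wherever viability, T/C is given: percent viability relative to DMSO vehicle control wells taken as 100%.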

Work on `COc1cc2cc(C(=O)CCC(=O)O)sc2cc1OC` + Cc1cccc(N(C)C(=O)C2C(O)CCN2c2nc(C)cc(C(F)(F)F)c2C#N)c1 yielded an IC50 (second compound 0.0316 µM) greater than 10 µM, an IC50 (second compound 0.1 µM) greater than 10 µM and an IC50 (second compound 0.316 µM) greater than 10 µM. The IC50 (second compound 1 µM) was greater than 10 µM, the IC50 (second compound 3.16 µM) was greater than 10 µM and the IC50 (second compound 10 µM) was greater than 10 µM. The viability, T/C [1] was 103%, the viability, T/C [2] was 107% and the viability, T/C [3] was 107%. For the same compound, the viability, T/C [4] was 102%, the viability, T/C [5] was 106% and the viability, T/C [6] was 97%. For the same compound, the viability, T/C [7] was 105%, the viability, T/C [8] was 98.1% and the viability, T/C [9] was 95.7%. For the same compound, the viability, T/C [10] was 98%, the viability, T/C [11] was 92.6% and the viability, T/C [12] was 88.7%. The viability, T/C [13] was 93.8%, the viability, T/C [14] was 104% and the viability, T/C [15] was 96.2%. The viability, T/C [16] was 110%, the viability, T/C [17] was 109% and the viability, T/C [18] was 93.7%. It also gave a viability, T/C [19] of 105%, a viability, T/C [20] of 102% and a viability, T/C [21] of 99%. For the same compound, the viability, T/C [22] was 102%, the viability, T/C [23] was 105% and the viability, T/C [24] was 93.7%. The viability, T/C [25] was 103%, the viability, T/C [26] was 97.9% and the viability, T/C [27] was 96.5%. The viability, T/C [28] was 100%, the viability, T/C [29] was 98.9% and the viability, T/C [30] was 95.5%. For the same compound, the viability, T/C [31] was 97.7%, the viability, T/C [32] was 98.8% and the viability, T/C [33] was 94%. It also gave a viability, T/C [34] of 111%, a viability, T/C [35] of 102% and a viability, T/C [36] of 90.8%.
Compound `COc1cccc(OCCCN)c1-c1cc(Nc2cnc(C#N)cn2)n[nH]1` + Nc1ccc(C#CCN(C(=O)Cc2ncc(C(F)(F)F)cc2C(F)(F)F)c2ccc(F)cc2)nn1 has an IC50 (second compound 0.0316 µM) of 0.0156 µM, an IC50 (second compound 0.1 µM) of 0.0136 µM and an IC50 (second compound 0.316 µM) of 0.0143 µM. The IC50 (second compound 1 µM) was 0.0139 µM, the IC50 (second compound 3.16 µM) was 0.0137 µM and the IC50 (second compound 10 µM) was 0.0116 µM. It also gave a viability, T/C (second compound 0.0316 µM, first compound 0.00316 µM) of 100%, a viability, T/C (second compound 0.0316 µM, first compound 0.01 µM) of 76.6% and a viability, T/C [1] of 7.44%. For the same compound, the viability, T/C [2] was 5.67%, the viability, T/C [3] was 5.56% and the viability, T/C [4] was 4.28%. It also gave a viability, T/C (second compound 0.1 µM, first compound 0.00316 µM) of 101%, a viability, T/C (second compound 0.1 µM, first compound 0.01 µM) of 63.5% and a viability, T/C [7] of 12.7%. The viability, T/C [8] was 6.65%, the viability, T/C [9] was 5.32% and the viability, T/C [10] was 4.22%. The viability, T/C (second compound 0.316 µM, first compound 0.00316 µM) was 110%, the viability, T/C (second compound 0.316 µM, first compound 0.01 µM) was 67.2% and the viability, T/C [13] was 11.2%. The viability, T/C [14] was 7.21%, the viability, T/C [15] was 5.08% and the viability, T/C [16] was 4.5%. For the same compound, the viability, T/C (second compound 1 µM, first compound 0.00316 µM) was 99.7%, the viability, T/C (second compound 1 µM, first compound 0.01 µM) was 67.3% and the viability, T/C [19] was 6.4%. It also gave a viability, T/C [20] of 5.68%, a viability, T/C [21] of 5.11% and a viability, T/C [22] of 3.75%. The viability, T/C (second compound 3.16 µM, first compound 0.00316 µM) was 101%, the viability, T/C (second compound 3.16 µM, first compound 0.01 µM) was 66.7% and the viability, T/C [25] was 5.97%. It also gave a viability, T/C [26] of 5.07%, a viability, T/C [27] of 5.91% and a viability, T/C [28] of 4.97%. The viability, T/C (second compound 10 µM, first compound 0.00316 µM) was 113%, the viability, T/C (second compound 10 µM, first compound 0.01 µM) was 56.4% and the viability, T/C [31] was 5.54%. The viability, T/C [32] was 5.59%, the viability, T/C [33] was 5.26% and the viability, T/C [34] was 4.7%.
`CCCS(=O)(=O)Nc1ccc(F)c(C(=O)c2c[nH]c3ncc(-c4ccc(Cl)cc4)cc23)c1F` + Nc1ccc(C#CCN(C(=O)Cc2ncc(C(F)(F)F)cc2C(F)(F)F)c2ccc(F)cc2)nn1 was tested, and the IC50 (second compound 0.0316 µM) was 8.62 µM, the IC50 (second compound 0.1 µM) was 8.22 µM and the IC50 (second compound 0.316 µM) was 8.45 µM. For the same compound, the IC50 (second compound 1 µM) was 8.62 µM, the IC50 (second compound 3.16 µM) was 8.46 µM and the IC50 (second compound 10 µM) was 7.56 µM. It also gave a viability, T/C [1] of 106%, a viability, T/C [2] of 109% and a viability, T/C [3] of 117%. For the same compound, the viability, T/C [4] was 114%, the viability, T/C [5] was 114% and the viability, T/C [6] was 40.7%. It also gave a viability, T/C [7] of 104%, a viability, T/C [8] of 109% and a viability, T/C [9] of 108%. The viability, T/C [10] was 115%, the viability, T/C [11] was 113% and the viability, T/C [12] was 37.6%. For the same compound, the viability, T/C [13] was 106%, the viability, T/C [14] was 109% and the viability, T/C [15] was 110%. It also gave a viability, T/C [16] of 114%, a viability, T/C [17] of 120% and a viability, T/C [18] of 39.5%. For the same compound, the viability, T/C [19] was 112%, the viability, T/C [20] was 116% and the viability, T/C [21] was 116%. For the same compound, the viability, T/C [22] was 117%, the viability, T/C [23] was 114% and the viability, T/C [24] was 40.4%. The viability, T/C [25] was 116%, the viability, T/C [26] was 118% and the viability, T/C [27] was 112%. It also gave a viability, T/C [28] of 115%, a viability, T/C [29] of 113% and a viability, T/C [30] of 39.3%. It also gave a viability, T/C [31] of 133%, a viability, T/C [32] of 116% and a viability, T/C [33] of 117%. For the same compound, the viability, T/C [34] was 116%, the viability, T/C [35] was 116% and the viability, T/C [36] was 28.9%.
`CC1COCCN1c1cc(C2(O)CC3CCC(C2)O3)c2cnn(-c3ccn[nH]3)c2n1` (stereo not drawn) + Nc1ccc(C#CCN(C(=O)Cc2ncc(C(F)(F)F)cc2C(F)(F)F)c2ccc(F)cc2)nn1 showed an IC50 (second compound 0.0316 µM) of 0.12 µM, an IC50 (second compound 0.1 µM) of 0.114 µM and an IC50 (second compound 0.316 µM) of 0.0868 µM. It also gave an IC50 (second compound 1 µM) of 0.0952 µM, an IC50 (second compound 3.16 µM) of 0.104 µM and an IC50 (second compound 10 µM) of 0.108 µM. The viability, T/C [1] was 83.7%, the viability, T/C [2] was 55.6% and the viability, T/C [3] was 21%. The viability, T/C [4] was 12.5%, the viability, T/C [5] was 16.3% and the viability, T/C [6] was 10.3%. It also gave a viability, T/C [7] of 84.1%, a viability, T/C [8] of 54% and a viability, T/C [9] of 19.8%. The viability, T/C [10] was 12.3%, the viability, T/C [11] was 15.2% and the viability, T/C [12] was 13%. It also gave a viability, T/C [13] of 87.1%, a viability, T/C [14] of 44.8% and a viability, T/C [15] of 18.7%. The viability, T/C [16] was 11.5%, the viability, T/C [17] was 14.3% and the viability, T/C [18] was 11.2%. For the same compound, the viability, T/C [19] was 80.4%, the viability, T/C [20] was 48.6% and the viability, T/C [21] was 15.4%. The viability, T/C [22] was 11%, the viability, T/C [23] was 13.4% and the viability, T/C [24] was 11.7%. It also gave a viability, T/C [25] of 88.1%, a viability, T/C [26] of 51.1% and a viability, T/C [27] of 20.9%. For the same compound, the viability, T/C [28] was 10.7%, the viability, T/C [29] was 15.2% and the viability, T/C [30] was 10.3%. It also gave a viability, T/C [31] of 91.6%, a viability, T/C [32] of 52.4% and a viability, T/C [33] of 14.7%. It also gave a viability, T/C [34] of 9.37%, a viability, T/C [35] of 11.2% and a viability, T/C [36] of 10.2%.
